Laboratory results taken from US10155021B2, “Antimicrobial 4-oxoquinolizines” (Emergent Product Development Gaithersburg Inc., priority 2011, dated 2018).
≈ marks a conversion by molar mass, not a printed value. Read-outs that look alike come from different tables or passages of the source.

What was measured:
[1] = test system: resistant strains of A. baumannii and one strain of Acinetobacter sp.; assay: MIC without and with sub-inhibitory polymyxin B, whole panel / MIC ranges (Example 4; also strains not listed separately); assay type: cell-based
[2] = test system: A. baumannii A387; assay: MIC without and with sub-inhibitory polymyxin B (Example 4); assay type: cell-based, Acinetobacter baumannii; conditions: A. baumannii A387, +0.06 μg/ml polymyxin B
[3] = test system: Acinetobacter sp. (H064200250); assay: Preliminary MBC without and with sub-inhibitory polymyxin B (Example 4); assay type: cell-based; conditions: Acinetobacter, without polymyxin B, preliminary MBC, read-out: MBC without PB
Method: The plates were incubated for 18-20 hours at 37° C. The MBC was read as the lowest concentration at which colony growth was ca. 90% less than the positive control (i.e. usually where single colonies or no colonies were observed).

[4] = test system: Acinetobacter sp. (H064200250); assay: MIC without and with sub-inhibitory polymyxin B (Example 4); assay type: cell-based; conditions: Acinetobacter, without polymyxin B, read-out: MIC without PB
[5] = test system: A. baumannii A329; assay: as above; assay type: cell-based, Acinetobacter baumannii; conditions: A. baumannii A329; +0.06 μg/ml polymyxin B; 2nd experiment; visual reading
[6] = test system: Acinetobacter spp. H064200250; assay: MIC determination for Acinetobacter strains (Example 3); assay type: cell-based, Acinetobacter sp.; conditions: LEV R, CIP R, MRP R, IMP I
[7] = test system: 11 strains of A. baumannii and one strain of Acinetobacter sp.; assay: Preliminary MBC without and with sub-inhibitory polymyxin B, whole panel (Example 4; also strains not listed separately); assay type: cell-based; conditions: Acinetobacter baumannii, A. baumannii A14, without polymyxin B, 2nd experiment, read-out: MBC without PB
[8] = test system: A. baumannii A473; assay: MIC without and with sub-inhibitory polymyxin B (Example 4); assay type: cell-based, Acinetobacter baumannii; conditions: A. baumannii A473; +0.06 μg/ml polymyxin B; 2nd experiment; visual reading
[9] = test system: A. baumannii A472; assay: as above; assay type: cell-based, Acinetobacter baumannii; conditions: A. baumannii A472; ratio MIC without PB to MIC + PB, PB […]; 2nd experiment
[10] = test system: A. baumannii ATCC 19606; assay: Preliminary MBC without and with sub-inhibitory polymyxin B (Example 4); assay type: cell-based, Acinetobacter baumannii; conditions: Acinetobacter baumannii, ATCC19606, A. baumannii ATCC 19606, without polymyxin B, preliminary MBC, read-out: MBC without PB
[11] = test system: B. thailandensis; assay: microbe, parasite or virus in culture; assay type: cell-based, Burkholderia thailandensis; conditions: for MIC90: Burkholderia thailandensis, read-out: MIC90 B. thailandensis
[12] = test system: B. thailandensis E264; assay: microbe, parasite or virus in culture; assay type: cell-based, Burkholderia thailandensis; conditions: Burkholderia thailandensis, E264, read-out: MIC B. thailandensis E264
[13] = test system: P. aeruginosa ATCC 27853; assay: MIC, selected panel of Gram-positive and Gram-negative strains (Example 5); assay type: cell-based
[14] = test system: S. aureus BAA-1556 (USA300-Type MRSA, FQ-R); assay: as above; assay type: cell-based, Staphylococcus aureus
[15] = test system: S. aureus ATCC 43300 (MRSA, FQ-S); assay: as above; assay type: cell-based, Staphylococcus aureus
[16] = test system: S. aureus ATCC 25923; assay: as above; assay type: cell-based
[17] = test system: E. coli ATCC 25922; assay: as above; assay type: cell-based, Escherichia coli
[18] = test system: A. baumannii ATCC 19606; assay: as above; assay type: cell-based, Acinetobacter baumannii
[19] = Acinetobacter spp. H064200250, 1st experiment
[20] = Pseudomonas aeruginosa, ATCC27853, read-out: MIC P. aeruginosa ATCC 27853
[21] = Staphylococcus aureus, read-out: MIC S. aureus BAA-1556 (USA300-Type MRSA, FQ-R)
[22] = Staphylococcus aureus, read-out: MIC S. aureus ATCC 43300 (MRSA, FQ-S)
[23] = Staphylococcus aureus, ATCC25923, read-out: MIC S. aureus ATCC 25923
[24] = Escherichia coli, ATCC25922, read-out: MIC E. coli ATCC 25922
[25] = Acinetobacter baumannii, ATCC19606, read-out: MIC A. baumannii ATCC 19606

Molecule	MIC90 [11] [µg/mL]	MIC [12] [µg/mL]	MIC [13, 20] [µg/mL]	MIC [14, 21] [µg/mL]	MIC [15, 22] [µg/mL]	MIC [16, 23] [µg/mL]	MIC [17, 24] [µg/mL]	MIC [18, 25] [µg/mL]	further results
NCC[C@H](O)C(=O)N[C@@H]1C[C@H](N)[C@@H](O[C@H]2O[C@H](CN)[C@@H](O)[C@H](O)[C@H]2O)[C@H](O)[C@H]1O[C@H]1O[C@H](CO)[C@@H](O)[C@H](N)[C@H]1O [Amikacin, reference compound]	–	–	–	–	–	–	–	–	fold greater activity (fold lower MIC) in presence of polymyxin B compared to without polymyxin B [1]: not significantly affected; MIC +[…] PB ([1]; A. baumannii NCTC 13301, +[…] polymyxin B, 2nd experiment, visual reading): 128 µg/mL (≈ 219 µM); MIC +0.06 μg/ml PB ([2]; 2nd experiment, visual reading): 128 µg/mL; MBC ([3]; Acinetobacter spp. H064200250 (OXA51), 2nd experiment): 8 µg/mL (≈ 13.7 µM); MBC [3, 19]: 16 µg/mL (≈ 27.3 µM); MIC ([4]; Acinetobacter spp. H064200250 (OXA51), 2nd experiment, visual reading): 8 µg/mL (≈ 13.7 µM); MIC [4, 19]: 16 µg/mL (≈ 27.3 µM); MIC +0.06 μg/ml PB [5]: 128 µg/mL; MIC [6]: 16 µg/mL (≈ 27.3 µM); MBC [7]: 16 µg/mL (≈ 27.3 µM); MIC +0.06 μg/ml PB [8]: 128 µg/mL; MIC ratio without/with polymyxin B [9]: ≥ 4 µg/mL; MBC ([10]; 2nd experiment): 16 µg/mL (≈ 27.3 µM); MBC ([10]; 1st experiment): 16 µg/mL (≈ 27.3 µM)
Cc1c(-c2ccc(C#N)cc2)ccn2c(=O)c(C(=O)O)cc(C3CC3)c12 [Compound 14, 8-(4-cyanophenyl)-1-cyclopropyl-9-methyl-4-oxo-quinolizine-3-carboxylic acid]	< 0.048	–	–	–	–	–	–	–	–
Cc1cc(-c2ccn3c(=O)c(C(=O)O)cc(C4CC4)c3c2C)c(Cl)cc1N [Compound 11, 8-(2-chloro-4-amino-5-methyl-phenyl)-1-cyclopropyl-9-methyl-4-oxo-quinolizine-3-carboxylic acid]	< 0.048	–	–	–	–	–	–	–	–
Cc1ccc(-c2ccn3c(=O)c(C(=O)O)cc(C4CC4)c3c2C)cc1 [Compound 15, 8-(p-tolyl)-1-cyclopropyl-9-methyl-4-oxo-quinolizine-3-carboxylic acid]	< 0.048	–	–	–	–	–	–	–	–
Cc1c(-c2cn[nH]c2)ccn2c(=O)c(C(=O)[O-])cc(C3CC3)c12.[K+] [Compound 67K salt, potassium 8-(1H-pyrazol-4-yl)-1-cyclopropyl-9-methyl-4-oxo-4H-quinolizine-3-carboxylate]	–	0.25	2	1	0.016	0.016	0.032	0.25	–
Cc1c(-c2ccc(CN)s2)ccn2c(=O)c(C(=O)O)cc(C3CC3)c12 [Compound 13]	0.195 (≈ 0.55 µM)	–	–	–	–	–	–	–	–
Cc1c(-c2ccc(O)c(CN)c2)ccn2c(=O)c(C(=O)[O-])cc(C3CC3)c12.[K+] [Compound 72K salt, potassium 8-(3-(aminomethyl)-4-hydroxyphenyl)-1-cyclopropyl-9-methyl-4-oxo-4H-quinolizine-3-carboxylate]	–	2	0.5	0.25	0.008 to 0.016	0.008	0.008 to 0.016	0.25	–
Cc1c(-c2cnc3[nH]ccc3c2)ccn2c(=O)c(C(=O)[O-])cc(C3CC3)c12.[K+] [Compound 85K salt, potassium 8-(1H-pyrrolo[2,3-b]pyridin-5-yl)-1-cyclopropyl-9-methyl-4-oxo-4H-quinolizine-3-carboxylate]	–	0.25	1	0.064 to 0.125	≤ 0.004	≤ 0.004	0.032	0.064	–
Cc1c(-c2ccc3[nH]cnc3c2)ccn2c(=O)c(C(=O)[O-])cc(C3CC3)c12.[K+] [Compound 74K salt, potassium 8-(1H-benzo[d]imidazol-5-yl)-1-cyclopropyl-9-methyl-4-oxo-4H-quinolizine-3-carboxylate]	–	2	8	0.5	0.016	0.016	0.064 to 0.125	0.5	–
Cc1c(-c2ccc(C(=O)C(F)(F)F)cc2)ccn2c(=O)c(C(=O)O)cc(C3CC3)c12 [Compound 63, 8-[4-(2,2,2-trifluoroacetyl)phenyl]-1-cyclopropyl-9-methyl-4-oxo-quinolizine-3-carboxylic acid]	–	2 (≈ 4.82 µM)	–	–	–	–	–	–	MIC ([13]; Pseudomonas aeruginosa, ATCC27853; read-out: MIC P. aeruginosa ATCC 27853): > 8 µg/mL; MIC ([14]; Staphylococcus aureus; read-out: MIC S. aureus BAA-1556 (USA300-Type MRSA, FQ-R)): 1 µg/mL (≈ 2.41 µM); MIC ([15]; Staphylococcus aureus; read-out: MIC S. aureus ATCC 43300 (MRSA, FQ-S)): 0.032 µg/mL (≈ 0.077 µM); MIC ([16]; Staphylococcus aureus, ATCC25923; read-out: MIC S. aureus ATCC 25923): 0.064 µg/mL (≈ 0.154 µM); MIC ([17]; Escherichia coli, ATCC25922; read-out: MIC E. coli ATCC 25922): 0.5 µg/mL (≈ 1.2 µM); MIC ([18]; Acinetobacter baumannii, ATCC19606; read-out: MIC A. baumannii ATCC 19606): 2 µg/mL (≈ 4.82 µM)
8-[(3S)-3-aminocyclopentyl]-1- cyclopropyl-7-fluoro-9-methyl- 4-oxo-quinolizine-3-carboxylic acid [Compound 10]	–	–	–	–	–	–	–	–	MIC without PB/MIC + PB ([1]; A. baumannii A14, ratio, PB 0.06 μg/ml, 1st experiment): 1; MIC +0.06 μg/ml PB ([2]; 1st experiment): 0.5 µg/mL; Dilutions improvement shift on B. thailandensis MIC90 (between pH 7 and pH 5) ([11]; pH 7 versus pH 5): Yes, 2×
Cc1c(-c2cccc3[nH]ncc23)ccn2c(=O)c(C(=O)[O-])cc(C3CC3)c12.[K+] [Compound 82K salt, potassium 8-(1H-indazol-4-yl)-1-cyclopropyl-9-methyl-4-oxo-4H-quinolizine-3-carboxylate]	–	4	8	1	0.016	0.016	0.125 to 0.25	1	–
Cc1c(-c2ccc(CN)o2)ccn2c(=O)c(C(=O)O)cc(C3CC3)c12 [Compound 12]	0.39 (≈ 1.15 µM)	–	–	–	–	–	–	–	–
Cc1cc(-c2ccn3c(=O)c(C(=O)[O-])cc(C4CC4)c3c2C)ccn1.[K+] [Compound 65K salt, potassium 8-(2-methylpyridin-4-yl)-1-cyclopropyl-9-methyl-4-oxo-4H-quinolizine-3-carboxylate]	–	0.5	4	0.25	0.008	0.016	0.032 to 0.064	0.25	–
Cc1c(-c2ccc(O)nc2)ccn2c(=O)c(C(=O)[O-])cc(C3CC3)c12.[K+] [Compound 55K salt, potassium 8-(6-hydroxypyridin-3-yl)-1-cyclopropyl-9-methyl-4-oxo-4H-quinolizine-3-carboxylate]	–	8	> 8	8	0.125 to 0.25	0.5	0.5	8	–
